Data: patent publication US11059832B2, “HPK1 inhibitors and methods of using same” (University Health Network, priority 2015, dated 2021)
pIC50: −log10 of the molar value.

Columns and labels:
human HPK1 (MAP4K1) = molecular target: T1, human HPK1 (MAP4K1) (Homo sapiens, UniProt Q92918); test: HPK1 inhibition assay (indirect ELISA); type: biochemical; details: GST-HPK1 0.6 nM, 12 μM ATP; read-out: IC50 Range HPK1
T1 construct: human HPK1 (aa 1-346); purchased Invitrogen PV6355
T1 sequence (Q92918 1-346): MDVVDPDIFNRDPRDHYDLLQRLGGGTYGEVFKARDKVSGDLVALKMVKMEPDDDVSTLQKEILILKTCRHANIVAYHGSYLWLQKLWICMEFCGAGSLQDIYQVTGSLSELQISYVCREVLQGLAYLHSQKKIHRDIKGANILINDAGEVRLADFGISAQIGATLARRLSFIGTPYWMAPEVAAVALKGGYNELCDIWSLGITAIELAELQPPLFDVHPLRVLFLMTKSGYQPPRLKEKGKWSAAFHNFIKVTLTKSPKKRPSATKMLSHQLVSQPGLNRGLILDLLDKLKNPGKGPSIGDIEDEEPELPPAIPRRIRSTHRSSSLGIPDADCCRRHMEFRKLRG
How it was run: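 GST-tagged human HPK1 (aa 1-346, 0.6 nM) phosphorylated MBP-coated wells with 12 μM ATP in MOPS pH 7.2/Mg2+ buffer for 30 min after 15-min compound preincubation; phospho-Thr detected by antibody ELISA with TMB, 450 nm. Tested at 10 μM or 10-point titration (typically 50-0.1 μM); IC50 by 4-parameter logistic fit.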

[1] = system: ERK1/2 T202/Y204 phosphorylation in α-CD3 stimulated Jurkat E6.1 cells; test: In vitro phosphorylation assay, ERK1/2 T202/Y204 (immunoblot); type: cell-based; details: Homo sapiens, 4 h pretreatment, read-out: ERK1/2 T202/Y204 Phosphorylation Onset Inhibition
Description: (§1) Jurkat E6.1 cells were obtained from American Type Culture Collection (ATCC, Manassas, Va.), and maintained according to the supplier's instructions. Cells were washed three times and starved in RPMI 1640 medium supplemented with 0.5% fetal calf serum for 18 h at 37° C. Serum starved cells were pretreated with the indicated concentration of inhibitor for 4 hours before stimulation with 10 μg/ml α-CD3 antibody (BioLegend, Inc., San Diego, Calif.) for 10 min at 37° C. The cells were washed once in phosphate-buffered saline (pH 7.4) containing 10 mm sodium pyrophosphate, 10 mm sodium fluoride, 10 mm EDTA, and 1 mm sodium orthovanadate. Protein lysates were prepared using ice-cold radioimmunoprecipitation assay (RIPA) lysis buffer. A total of 100 μg of cell lysate was loaded onto Bis-Tris gels (Life Technologies, Carlsbad, Calif.) with full-range molecular weight marker as a size reference, and resolved by SDS-PAGE electrophoresis. Proteins were transferred to PVDF membrane (Millipore, Billerica, Mass.), blocked and probed with antibodies for phospho-SLP-76 (Ser376) (rabbit polyclonal #13177; Cell Signaling Technology Inc., Danvers, Mass.), SLP-76 (rabbit polyclonal #4958; Cell Signaling Technology Inc., Danvers, Mass.), phospho-ERK (mouse monoclonal sc-7383; Santa Cruz Biotechnology Inc., Santa Cruz, Calif.) and ERK1/2 (rabbit polyclonal 06-182; Millipore, Billerica, Mass.). Secondary antibodies were diluted 1 in 15,000 and incubated for 1 h at rt. Protein bands were visualized and quantified using Odyssey near infrared imager (LI-COR, Lincoln, Nebr.).
(§2) Table 2 below lists effects of representative compounds of the present invention against SLP-76 serine 376 phosphorylation and ERK1/2 T202/Y204 phosphorylation in α-CD3 stimulated Jurkat E6.1 cells.

LCK = molecular target: T2, LCK (Homo sapiens, UniProt P06239); test: LCK inhibition, FRET based Z'-LYTE Kinase Assay; type: biochemical; details: 25 nM LCK, 180 μM ATP; read-out: IC50 Range Lck
T2 construct: purchased Invitrogen P3043
T2 sequence (P06239 whole entry, species assumed): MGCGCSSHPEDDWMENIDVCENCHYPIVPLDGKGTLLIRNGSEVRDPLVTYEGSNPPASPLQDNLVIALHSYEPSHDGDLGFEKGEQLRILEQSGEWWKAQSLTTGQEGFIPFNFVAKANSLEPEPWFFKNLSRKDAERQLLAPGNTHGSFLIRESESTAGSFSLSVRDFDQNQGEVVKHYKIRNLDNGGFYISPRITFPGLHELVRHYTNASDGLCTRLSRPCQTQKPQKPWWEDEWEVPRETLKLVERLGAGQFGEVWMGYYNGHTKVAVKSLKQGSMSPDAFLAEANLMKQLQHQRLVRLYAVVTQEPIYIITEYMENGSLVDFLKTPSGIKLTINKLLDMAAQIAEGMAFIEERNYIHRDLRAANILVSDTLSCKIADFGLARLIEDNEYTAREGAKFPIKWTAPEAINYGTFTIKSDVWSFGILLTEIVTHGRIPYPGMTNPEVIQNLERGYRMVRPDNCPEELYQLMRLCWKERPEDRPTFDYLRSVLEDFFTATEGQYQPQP
Description: (§3) FLT3 and LCK compound inhibition were determined using FRET based Z′-LYTE Kinase Assay Kit with Tyrosine 2 peptide as the substrate (Invitrogen cat #PV3191). […] The % inhibition values were determined according to the manufacturer's directions and IC50 values were obtained using a non-linear 4 point logistic curve fit (XLfit4, IDBS).

[2] = system: SLP-76 serine 376 phosphorylation in α-CD3 stimulated Jurkat E6.1 cells; test: In vitro phosphorylation assay, SLP-76 Ser376 (immunoblot); type: cell-based; details: Homo sapiens, 4 h pretreatment, substantive = >75% inhibition as estimated by immunoblot analysis, read-out: SLP76 S376 Phosphorylation Onset-Substantive* Inhibition
Description: as §1, §2

FLT3 = molecular target: T3, FLT3 (Homo sapiens, UniProt P36888); test: FLT3 inhibition, FRET based Z'-LYTE Kinase Assay; type: biochemical; details: 1 nM FLT3, 940 μM ATP; read-out: IC50 Range Flt3
T3 construct: purchased Invitrogen PV3182
T3 sequence (P36888 27-993): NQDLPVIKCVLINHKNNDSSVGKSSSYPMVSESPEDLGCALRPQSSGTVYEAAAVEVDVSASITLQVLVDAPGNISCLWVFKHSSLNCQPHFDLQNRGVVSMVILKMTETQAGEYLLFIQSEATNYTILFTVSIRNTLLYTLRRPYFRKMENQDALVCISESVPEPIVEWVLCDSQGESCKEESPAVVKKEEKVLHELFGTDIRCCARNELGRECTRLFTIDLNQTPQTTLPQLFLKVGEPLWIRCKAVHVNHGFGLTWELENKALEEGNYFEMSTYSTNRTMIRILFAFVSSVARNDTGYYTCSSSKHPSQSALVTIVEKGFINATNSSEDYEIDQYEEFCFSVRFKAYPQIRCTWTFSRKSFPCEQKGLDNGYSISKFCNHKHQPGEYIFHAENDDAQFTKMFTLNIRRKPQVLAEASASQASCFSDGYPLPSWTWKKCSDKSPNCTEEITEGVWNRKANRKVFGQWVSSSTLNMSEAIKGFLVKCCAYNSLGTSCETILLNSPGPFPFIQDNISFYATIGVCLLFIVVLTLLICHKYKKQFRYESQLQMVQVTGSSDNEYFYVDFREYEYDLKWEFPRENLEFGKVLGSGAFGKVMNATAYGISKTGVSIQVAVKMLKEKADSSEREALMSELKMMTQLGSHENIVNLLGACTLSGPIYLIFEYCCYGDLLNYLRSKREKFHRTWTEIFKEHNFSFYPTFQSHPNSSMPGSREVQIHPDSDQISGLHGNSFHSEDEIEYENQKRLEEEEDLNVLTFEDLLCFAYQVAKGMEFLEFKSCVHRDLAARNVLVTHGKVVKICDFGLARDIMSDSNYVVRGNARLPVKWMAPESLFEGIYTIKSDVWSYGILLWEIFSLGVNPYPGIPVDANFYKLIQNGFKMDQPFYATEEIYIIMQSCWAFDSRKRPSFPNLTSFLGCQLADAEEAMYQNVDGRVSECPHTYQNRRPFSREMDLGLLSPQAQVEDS
Description: as §3

Structure (SMILES) | pIC50 (human HPK1 (MAP4K1)) | pIC50 (LCK) | pIC50 (FLT3) | minimal effective concentration [1] [µM] | IC75 [2] [nM]
CN1CCN(c2ccc3nc(-c4c(N[C@@H]5CCOC5)c5ccsc5[nH]c4=O)[nH]c3c2)CC1 [Example A10, (R)-5-(6-(4-methylpiperazin-1-yl)-1H-benzo[d]imidazol-2-yl)-4-((tetrahydrofuran-3-yl)amino)thieno[2,3-b]pyridin-6(7H)-one] | ≥ 7.30 | 6.30 to 7.30 | ≥ 7.30 | > 3 | 1000 to 3000
CN1CCC(Nc2c(-c3nc4ccc(N5CCOCC5)cc4[nH]3)c(=O)[nH]c3sccc23)CC1 [Example A18, 4-((1-methylpiperidin-4-yl)amino)-5-(6-morpholino-1H-benzo[d]imidazol-2-yl)thieno[2,3-b]pyridin-6(7H)-one] | ≥ 7.30 | 6.30 to 7.30 | ≥ 7.30 | > 3 | 300 to 1000
CN1CCN(c2ccc3nc(-c4c(N)c5c(N6CCNCC6)csc5[nH]c4=O)[nH]c3c2)CC1 [Example A21, 4-amino-5-(6-(4-methylpiperazin-1-yl)-1H-benzo[d]imidazol-2-yl)-3-(piperazin-1-yl)thieno[2,3-b]pyridin-6(7H)-one] | ≥ 7.30 | < 6.30 | 6.30 to 7.30 | > 3 | > 3000
CN1CCN(c2ccc3nc(-c4c(N)c5cscc5[nH]c4=O)[nH]c3c2)CC1 [Example A23, 4-amino-3-(6-(4-methylpiperazin-1-yl)-1H-benzo[d]imidazol-2-yl)thieno[3,4-b]pyridin-2(1H)-one] | ≥ 7.30 | ≥ 7.30 | ≥ 7.30 | > 3 | 300 to 1000
CN1CCN(c2ccc3nc(-c4c(N)c5sccc5[nH]c4=O)[nH]c3c2)CC1 [Example A30, 7-amino-6-(6-(4-methylpiperazin-1-yl)-1H-benzo[d]imidazol-2-yl)thieno[3,2-b]pyridin-5(4H)-one] | ≥ 7.30 | ≥ 7.30 | ≥ 7.30 | > 3 | 300 to 1000
CN1CCN(c2ccc3nc(-c4c(NC5CCCC5)c5sccc5[nH]c4=O)[nH]c3c2)CC1 [Example A34, 7-(cyclopentylamino)-6-(6-(4-methylpiperazin-1-yl)-1H-benzo[d]imidazol-2-yl)thieno[3,2-b]pyridin-5(4H)-one] | ≥ 7.30 | ≥ 7.30 | ≥ 7.30 | 3 | 1000 to 3000
CN1CCN(c2ccc3nc(-c4c(N[C@H]5CC[C@H](O)CC5)c5sccc5[nH]c4=O)[nH]c3c2)CC1 [Example A37, 7-(((1r,4r)-4-hydroxycyclohexyl)amino)-6-(6-(4-methylpiperazin-1-yl)-1H-benzo[d]imidazol-2-yl)thieno[3,2-b]pyridin-5(4H)-one] | ≥ 7.30 | ≥ 7.30 | ≥ 7.30 | 1 to 3 | 100 to 300
O=c1[nH]c2ccsc2c(NC2CCNCC2)c1-c1nc2ccc(N3CCOCC3)cc2[nH]1 [Example A43, 6-(6-morpholino-1H-benzo[d]imidazol-2-yl)-7-(piperidin-4-ylamino)thieno[3,2-b]pyridin-5(4H)-one] | ≥ 7.30 | 6.30 to 7.30 | ≥ 7.30 | > 3 | 100 to 300
CN1CCN(c2ccc3nc(-c4c(N[C@H]5CCCC[C@H]5O)c5ccsc5[nH]c4=O)[nH]c3c2)CC1 [Example A57, 4-(((1S,2R)-2-hydroxy-cyclohexyl)amino)-5-(6-(4-methylpiperazin-1-yl)-1H-benzo[d]imidazol-2-yl)thieno-[2,3-b]pyridin-6(7H)-one] | ≥ 7.30 | 6.30 to 7.30 | ≥ 7.30 | > 3 | 300 to 1000

Second part, led by results:

pIC50 (human HPK1 (MAP4K1)) | pIC50 (LCK) | pIC50 (FLT3) | Structure (SMILES) | minimal effective concentration [1] [µM] | IC75 [2] [nM]
≥ 7.30 | ≥ 7.30 | ≥ 7.30 | CN1CCN(c2ccc3nc(-c4c(N[C@H]5CCC[C@@H]5O)c5ccsc5[nH]c4=O)[nH]c3c2)CC1 [Example A66, 4-(((1S,2S)-2-hydroxycyclopentyl)amino)-5-(6-(4-methylpiperazin-1-yl)-1H-benzo[d]imidazol-2-yl)thieno[2,3-b]pyridin-6(7H)-one] |  | 
≥ 7.30 | 6.30 to 7.30 | ≥ 7.30 | CN1CCN(c2ccc3nc(-c4c(N[C@@H]5CCC[C@H]5O)c5ccsc5[nH]c4=O)[nH]c3c2)CC1 [Example A67, 4-(((1R,2R)-2-hydroxycyclopentyl)amino)-5-(6-(4-methylpiperazin-1-yl)-1H-benzo[d]imidazol-2-yl)thieno[2,3-b]pyridin-6(7H)-one] |  | 
≥ 7.30 | ≥ 7.30 | ≥ 7.30 | CN1CCN(c2cc3[nH]c(-c4c(N)c5sccc5[nH]c4=O)nc3cc2F)CC1 [Example A68, 7-amino-6-(5-fluoro-6-(4-methylpiperazin-1-yl)-1H-benzo[d]imidazol-2-yl)thieno[3,2-b]pyridin-5(4H)-one] |  | 
≥ 7.30 | ≥ 7.30 | ≥ 7.30 | CN1CCN(c2ccc3nc(-c4c(N[C@@H]5CCOC5)c5cscc5[nH]c4=O)[nH]c3c2)CC1 [Example A71, (R)-3-(6-(4-methylpiperazin-1-yl)-1H-benzo[d]imidazol-2-yl)-4-((tetrahydrofuran-3-yl)amino)thieno[3,4-b]pyridin-2(1H)-one] |  | 
≥ 7.30 | < 6.30 | ≥ 7.30 | O=c1[nH]c2sccc2c(N[C@H]2CCCC[C@H]2O)c1-c1nc2ccc(N3CCOCC3)cc2[nH]1 [Example A72, 4-(((1S,2R)-2-hydroxycyclohexyl)amino)-5-(6-morpholino-1H-benzo[d]imidazol-2-yl)thieno[2,3-b]pyridin-6(7H)-one] |  | 
